Test results taken from US10662146B2, “Prodrugs of fencamfamine” (Praxis Bioresearch, LLC, priority 2015, dated 2020).
Where two headings read alike, the source gives them in different places.

Experiments:
[1] = Single dose oral PK study in male Sprague Dawley rats (plasma by LC-MS/MS); format: in vivo; settings: mean; for AUC: read-out: Oral PK Parameters AUC, Prodrug
Description: (§1) We describe here PK results of prodrugs of PRX-002 (−) or (+) isomers. All doses of prodrugs were administered such that they were equivalent to 5 mg/kg of PRX-002 (−) or (+) for oral studies and 2 mg/kg PRX-002 (−) or (+) for intravenous studies in male Sprague-Dawley (MSD) rats. Higher doses of up to 10 or 15 mg/kg [again equivalent to PRX-002 (−)] were used in some studies (as specified)]. Formulation preparation, dose administration and time of sample collection was as follows.
Test item was weighed [5 mg equivalent dose of PRX-002 for prodrugs] and transferred to a graduated tube. Then 10 μL of Tween 80 was added and vortexed mixed until the test item was completely mixed. Small volume of 0.5% (w/v) carboxymethylcellulose in water solution was then added dropwise with continuous vortex mixing until a uniform suspension was obtained. The final volume was then made up to 10 mL with 0.5% (w/v) carboxymethylcellulose in water with final strength of 0.5 mg/mL. […] This formulation was freshly prepared before the administration to animals.
(§2) Adult male Sprague Dawley Rats aged 8-10 weeks were used for the study. Fasted animals were administered test item by oral route with a dose of 5 mg/kg body weight at dose volume of 10 mL/kg body weight. Under mild isoflurane anesthesia, blood specimens were collected by retro-orbital puncture method using capillary tubes into pre-labeled tubes containing anticoagulant (K2EDTA-2 mg/mL blood) during the next 24 hours of post dose as mentioned in below table. For blood sampling at multiple time points, right and left eyes were used alternatively for blood collection. Collected blood specimens were centrifuged at 4000 rpm, 4° C. for 10 minutes and plasma were separated and stored at −80° C. until analysis.
Blood was collected as outlined in Table 39.1 (oral).
(§3) Test item PRX-P4-003 was weighed and transferred to a graduated tube. Then 12.42 μL of Tween 80 was added and vortexed mixed until the test item was completely mixed. Small volume of 0.5% (w/v) Carboxymethylcellulose in water solution was then added dropwise with continuous vortex mixing until a uniform suspension was obtained. The final volume was then made up to 12.42 mL with 0.5% (w/v) Carboxymethylcellulose in water with final strength of 1.0 mgA/mL. […] This formulation was freshly prepared before the administration to animals.
as §2, with “with a PRX-P4-003” for “test item”, “10” for “5”
as §3, with “PRX-P5-006” for “PRX-P4-003”, “10” for “12.42”, “3.97 mg/mL.” for “1.0 mgA/mL.”
Adult male Sprague Dawley Rats aged 8-10 weeks were used for the study. Fasted animals were administered with a PRX-P5-006 by oral route with a dose of 15 mg/kg body weight at dose volume of 10 mL/kg body weight. […]

[2] = Single dose intravenous PK study in male Sprague Dawley rats (plasma by LC-MS/MS); format: in vivo; settings: male, Sprague Dawley, rat; IV 2 mg/kg [equivalent to PRX-002 (−)], analyte: prodrug in plasma, mean; read-out: IV PK Parameters Tmax, Prodrug
Description: as §1
as §2, with “study. Animals” for “study. Fasted animals”, “administered the” for “administered”, “by Intravenous bolus” for “by oral”, “of 2” for “of 5”, “of 5.0” for “of 10”
Blood was collected as outlined in Table 39.2 (IV).
Test item PRX-P4-003 was weighed and transferred to a graduated tube. Then 600 μL of PEG 400 (v/v) was added and vortex mixed thoroughly until the test item was completely dissolved. Then 1.800 mL of Hydroxypropyl-β-cyclodextrin (HPβCD, 50% w/v) was added and vortex mixed thoroughly. The final volume was then made up to 3.600 mL with sterile water for injection (SWFI, v/v) with final formulation strength of 5.16 mgA/mL. […] This formulation was freshly prepared before the administration to animals.
as §2, with “study. Animals” for “study. Fasted animals”, “administered with a PRX-P4-003” for “administered test item”, “by Intravenous bolus” for “by oral”, “of 10” for “of 5”, “of 5” for “of 10”
Test item PRX-P5-006 was weighed and transferred to a graduated tube. Then 500 μL of DMSO (v/v) was added vortex mixed thoroughly until the test item was completely dissolved. Then 4000 μL of Hydroxypropyl-β-cyclodextrin (HPβCD, 50% w/v) was added and vortex mixed thoroughly. Then 2500 μL of PEG 400 (v/v) was added and vortex mixed thoroughly. The final volume was then made up to 10000 μL with sterile water for injection (SWFI, v/v) with final formulation strength of 3.97 mg/mL. […] This formulation was freshly prepared before the administration to animals.
as §2, with “Animals” for “Fasted animals”, “with a PRX-P5-006” for “test item”, “Intravenous bolus” for “oral”, “15” for “5”
The plasma concentrations of fencamfamine were measured by LC-MS/MS over time. […] The release of fencamfamine from the prodrugs varied depending on the chain length of the fatty acid linkers attached to fencamfamine. […]

[3] = male, Sprague Dawley, rat, in vivo, oral 5 mg/kg [equivalent to PRX-002 (−)], analyte: prodrug in plasma, read-out: Oral PK Parameters Tmax, Prodrug
[4] = male, Sprague Dawley, rat, in vivo, po, 5 mg/kg, oral 5 mg/kg [equivalent to PRX-002 (−)], analyte: prodrug in plasma, read-out: Oral PK Parameters Cmax, Prodrug
[5] = male, Sprague Dawley, rat, in vivo, oral 5 mg/kg [equivalent to PRX-002 (−)], analyte: prodrug in plasma

CCCCCCCCCC(=O)OCOC(=O)N(CC)C1C2CCC(C2)C1c1ccccc1 (single isomer, unassigned) [PRX-P4-002, N-(Decanoyloxymethoxycarbonyl)-(−)-N-ethyl-3-phenylbicyclo[2.2.1]heptan-2-amine]
Tmax [1, 3]: 0 min | Tmax [2]: 0 h

CCCCCCCCCC(=O)OC(C)OC(=O)N(CC)C1C2CCC(C2)C1c1ccccc1 (single isomer, unassigned) [PRX-P5-002, N-(1-Decanoyloxyethoxycarbonyl)-(−)-N-ethyl-3-phenylbicyclo[2.2.1]heptan-2-amine]
Tmax [1, 3]: 0 min | Tmax [2]: 0 h

CCN(C(=O)[C@@H](NC(=O)[C@@H](N)C(C)C)C(C)C)C1C2CCC(C2)C1c1ccccc1 (single isomer, unassigned) [PRX-P6-011, N-(Valyl-valyl)-(+)-N-ethyl-3-phenylbicyclo[2.2.1]heptan-2-amine]
AUC% extrap of PRX-P6-011 ([1]; PRX-P6-011 oral 5 mg/kg): 23.190 ± 3.6640% | Cmax [1, 4]: 82.2 ± 30.9 ng/mL | concentration at 0 h ([1]; male, Sprague Dawley, rat, in vivo, PRX-P6-011 oral 5 mg/kg b.w., 0.00 h, read-out: Plasma concentrations of PRX-P6-011): 0 ng/mL | concentration at 0.08 h ([1]; male, Sprague Dawley, rat, in vivo, PRX-P6-011 oral 5 mg/kg b.w., 0.08 h, read-out: Plasma concentrations of PRX-P6-011): 75.9 ng/mL | concentration at 4 h ([1]; male, Sprague Dawley, rat, in vivo, PRX-P6-011 oral 5 mg/kg b.w., 4.00 h, read-out: Plasma concentrations of PRX-P6-011): 0 ng/mL | concentration at 6 h ([1]; male, Sprague Dawley, rat, in vivo, PRX-P6-011 oral 5 mg/kg b.w., 6.00 h, read-out: Plasma concentrations of PRX-P6-011): 0 ng/mL | concentration at 24 h ([1]; male, Sprague Dawley, rat, in vivo, PRX-P6-011 oral 5 mg/kg b.w., 24.00 h, read-out: Plasma concentrations of PRX-P6-011): 0 ng/mL | AUC [1, 5]: 44.2 ± 17.1 ng·h/mL | Tmax [1, 3]: 8.4 ± 6 min | AUC(0-inf) ([1]; male, Sprague-Dawley, rat, in vivo, po, 5 mg/kg, PRX-P6-011 oral 5 mg/kg, read-out: AUCinf of PRX-P6-011): 57.3 ± 21.3 ng·h/mL | AUC(0-t) ([1]; male, Sprague-Dawley, rat, in vivo, po, 5 mg/kg, PRX-P6-011 oral 5 mg/kg, read-out: AUClast of PRX-P6-011): 44.2 ± 17.1 ng·h/mL | Cmax ([1]; male, Sprague-Dawley, rat, in vivo, po, 5 mg/kg, PRX-P6-011 oral 5 mg/kg, read-out: Cmax of PRX-P6-011): 82.2 ± 30.9 ng/mL | MRT last ([1]; male, Sprague-Dawley, rat, in vivo, po, 5 mg/kg, PRX-P6-011 oral 5 mg/kg, read-out: MRTlast of PRX-P6-011): 34.5 ± 2.22 min | half-life ([1]; male, Sprague-Dawley, rat, in vivo, po, 5 mg/kg, PRX-P6-011 oral 5 mg/kg, read-out: T1/2 of PRX-P6-011 (converted)): 70.3 ± 12.7 min | concentration at 0.25 h ([1]; male, Sprague-Dawley, rat, in vivo, PRX-P6-011 oral 5 mg/kg b.w., 0.25 h, read-out: Plasma concentrations of PRX-P6-011): 62.8 ng/mL | concentration at 0.5 h ([1]; male, Sprague-Dawley, rat, in vivo, PRX-P6-011 oral 5 mg/kg b.w., 0.50 h, read-out: Plasma concentrations of PRX-P6-011): 20.8 ng/mL | concentration at 1 h ([1]; male, Sprague-Dawley, rat, in vivo, PRX-P6-011 oral 5 mg/kg b.w., 1.00 h, read-out: Plasma concentrations of PRX-P6-011): 13 ng/mL | concentration at 2 h ([1]; male, Sprague-Dawley, rat, in vivo, PRX-P6-011 oral 5 mg/kg b.w., 2.00 h, read-out: Plasma concentrations of PRX-P6-011): 7.87 ng/mL | Tmax ([1]; male, Sprague-Dawley, rat, in vivo, PRX-P6-011 oral 5 mg/kg, read-out: Tmax of PRX-P6-011): 8.22 ± 5.88 min

CCN(C(=O)[C@@H](N)CCCCN)C1C2CCC(C2)C1c1ccccc1 (stereo partly drawn) [PRX-P1-005, N-Lysyl-(−)-N-ethyl-3-phenylbicyclo[2.2.1]heptan-2-amine]
Cmax [1, 4]: 32 ± 7.5 ng/mL | AUC [1, 5]: 42 ± 9.4 ng·h/mL | Tmax [1, 3]: 30 min

CCN(C(=O)[C@@H](N)Cc1ccccc1)C1C2CCC(C2)C1c1ccccc1 (stereo partly drawn) [PRX-P1-013, N-Phenylalanyl-(−)-N-ethyl-3-phenylbicyclo[2.2.1]heptan-2-amine]
Cmax [1, 4]: 307 ± 49.6 ng/mL | AUC [1, 5]: 678 ± 101 ng·h/mL | Tmax [1, 3]: 42 ± 18 min
